In US6472348B1, “Pyridone derivatives and herbicides” (Kumiai Chemical Industry Co., Ltd., priority 1996, dated 2002):

Legend:
Assay type in all cases: in vivo
Set-up in all cases: scale not given here
[1] = tested on: corn (Ze); assay: Test Example 7: crop plant selectivity by upland field soil treatment (corn), phytotoxicity; conditions: 21st day after application
Method in brief: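 Greenhouse pot test: scores for herbicidal effect and corn phytotoxicity were given 21 days after soil treatment, against set rating standards. Crop and weed species (foxtail, smartweed, amaranth, lambsquarters, China jute) were sown together in sand and covered with soil beforehand.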

[2] = tested on: green foxtail (Se); assay: Test Example 5: crop plant selectivity by upland field soil treatment (wheat), herbicidal effects; conditions: 21st day after application
Method in brief: (§1)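 Upland soil treatment test: crop and weed species sown in sand-filled pots and covered with soil before compound application. Visual scoring of weed control and wheat injury 21 days post-application, plants kept in a greenhouse, using a standard rating scale.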

[3] = tested on: slender amaranth (Am); assay: as above; conditions: 21st day after application
Method in brief: as §1

[4] = tested on: pale smartweed (Po); assay: as above; conditions: 21st day after application
Method in brief: as §1

[5] = tested on: China jute (Ab); assay: as above; conditions: 21st day after application
Method in brief: as §1

[6] = tested on: common lambsquarters (Ch); assay: as above; conditions: 21st day after application
Method in brief: as §1

[7] = tested on: cotton (Go); assay: Test Example 4: crop plant selectivity by upland field soil treatment (cotton), phytotoxicity; conditions: evaluated 21st day after application
Method in brief: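 Seeds of cotton and several weed species were sown in sand-filled pots and covered with soil before soil treatment with the test compound. Plants were grown in a greenhouse, and herbicidal effect and crop phytotoxicity were scored against set standards 21 days after application.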

SMILES | Phytotoxicity Ze ([1]; dose 1.6 g ai/10a) | Herbicidal effects Se ([2]; dose 1.6 g ai/10a) | Herbicidal effects Am ([3]; dose 1.6 g ai/10a) | Herbicidal effects Po ([4]; dose 1.6 g ai/10a) | Herbicidal effects Ab ([5]; dose 1.6 g ai/10a) | Herbicidal effects Ch ([6]; dose 1.6 g ai/10a) | Phytotoxicity Go ([7]; dose 1.6 g ai/10 a) | Phytotoxicity Go ([7]; dose 6.3 g ai/10 a) | Phytotoxicity Ze ([1]; dose 6.3 g ai/10a) | Herbicidal effects Se ([2]; dose 6.3 g ai/10a) | Herbicidal effects Am ([3]; dose 6.3 g ai/10a) | Herbicidal effects Po ([4]; dose 6.3 g ai/10a) | Herbicidal effects Ab ([5]; dose 6.3 g ai/10a) | Herbicidal effects Ch ([6]; dose 6.3 g ai/10a)
COc1cc(-c2ccc(C(F)(F)F)n(C)c2=O)c(F)cc1Cl [1-15] | 1 | 5 | 5 | 5 | 5 | 5 | 0 | 1 | – | – | – | – | – | –
C#CC(C)Oc1cc(-c2ccc(C(F)(F)F)n(C)c2=O)c(F)cc1Cl (stereo not shown) [1-17] | 1 | 5 | 5 | 5 | 5 | 5 | 0 | 0 | 1 | – | – | – | – | –
CC(C)Sc1cc(-c2ccc(C(F)(F)F)n(C)c2=O)c(F)cc1Cl [1-43] | – | – | – | – | – | – | – | 0 | 1 | 5 | 5 | 5 | 4 | 5
C#CCSc1cc(-c2ccc(C(F)(F)F)n(C)c2=O)c(F)cc1Cl [1-44] | – | – | – | – | – | – | – | 1 | 1 | 5 | 5 | 5 | 5 | 5
Cc1cc(-c2ccc(C(F)(F)F)n(C)c2=O)c(F)cc1Cl [1-90] | 1 | – | – | – | – | – | – | 1 | 2 | 5 | 5 | 5 | 5 | 5
COCSc1cc(-c2ccc(C(F)(F)F)n(C)c2=O)c(F)cc1Cl [1-91] | 1 | 5 | 5 | 5 | 5 | 5 | 0 | 1 | 2 | – | – | – | – | –
Cn1c(C(F)(F)F)ccc(-c2cc(Cl)c(Cl)cc2F)c1=O [1-136] | 1 | 5 | 5 | 5 | 4 | 5 | – | 1 | – | 5 | 5 | 5 | 5 | 5
Cn1c(C(F)(F)F)ccc(-c2cc(OCC(F)(F)F)c(Cl)cc2F)c1=O [1-155] | 0 | 5 | 5 | 5 | 5 | 5 | 0 | 0 | 0 | 5 | 5 | 5 | 5 | 5
Cn1c(C(F)(F)F)ccc(-c2cc(OCC3CC3)c(Cl)cc2F)c1=O [1-160] | – | – | – | – | – | – | – | 1 | 1 | 5 | 5 | 5 | 5 | 5
C=CCN1C(=O)COc2cc(F)c(-c3ccc(C(F)(F)F)n(C)c3=O)cc21 [Compound 2-7] | – | 5 | 5 | 5 | 5 | 4 | 0 | 1 | – | – | – | – | – | –
Cn1cc(-c2cc(Oc3ccccc3)c(Cl)cc2F)c(=O)cc1C(F)(F)F [Compound No. 6-19, 5-(4-chloro-2-fluoro-5-phenoxyphenyl)-1-methyl-2-trifluoromethyl-4(1H)-pyridone] | – | 5 | 5 | 5 | 3 | 5 | 0 | 0 | – | 5 | 5 | 5 | 5 | 5
Cc1cc2c(-c3cn(C)c(C(F)(F)F)cc3=O)c(F)cc(Cl)c2o1 [Compound No. 9-1, 5-(7-chloro-5-fluoro-2-methylbenzofuran-4-yl)-1-methyl-2-trifluoromethyl-4(1H)-pyridone] | – | 5 | 5 | 5 | 5 | 5 | 0 | 0 | – | 5 | 5 | 4 | 5 | 5
